Test results reported in patent EP4153181B1, “PHARMACEUTICAL COMPOSITIONS COMPRISING BICTEGRAVIR” (GILEAD SCIENCES, INC., priority 2020, dated 2021).

Legend:
Conditions in all cases: IV administration, mean
[1] = Plasma pharmacokinetics of BIC after single SC injection of long acting formulations (and IV infusion) in dog; type: in vivo, beagle dog
Source text: (§1) Pharmacokinetics (PK) following a single BIC SC injection of solution and suspension formulations was characterized in male Sprague-Dawley rat, beagle dog, and cynomolgus monkey. The BIC injectable solution and both suspension formulations display extended-release PK following SC administration in all examined species and support a potential monthly or less frequent dosing regimen. […] Table 1. BIC Plasma Pharmacokinetic Parameters Following a Single Subcutaneous (SC) or Intramuscular (IM) Administration
This study investigated the pharmacokinetics of three formulations of bictegravir (BIC) by subcutaneous administration to determine the potential to deliver a long acting (LA) pharmacokinetic (PK) profile. BIC was administered by a 30-min intravenous (IV) infusion at 0.5 or 1 mg/kg and by subcutaneous (SC) injection of three LA formulations (e.g., NMP solution, HPMC suspension, and PVP suspension) at 10 mg/kg or 100 mg fixed dose to Male Beagle Dogs. The concentrations of BIC in plasma were determined with a liquid chromatography-tandem mass spectrometry (LC-MS/MS) method.
At dosing, the animals weighed between 7.98 and 11.6 kg. The animals from the SC leg with the PVP suspension were not fasted. […]
The intravenous dose was administered as a 30-minute infusion via a saphenous vein. […] Individual dose was calculated based on body weights recorded on the day of dose administration. […]

[2] = Plasma pharmacokinetics of BIC after single SC injection of long acting formulations (and IV infusion) in rat; type: in vivo, male Sprague-Dawley rat
Source text: as §1
This study investigated the pharmacokinetics of three formulations of bictegravir (BIC) by subcutaneous administration to determine the potential to deliver a long acting (LA) pharmacokinetic (PK) profile. […] The concentrations of BIC in plasma were determined with a liquid chromatography-tandem mass spectrometry (LC-MS/MS) method. […]
The intravenous dose was administered as a 30-minute infusion via a catheter implanted animals. […] Individual dose was calculated based on body weights recorded on the day of dose administration. […]
For estimation of pharmacokinetic parameters, concentrations reported as below the lower limit of quantification (BLQ) were assigned a value of zero if pre-dose and treated as missing thereafter. […]

[3] = Plasma pharmacokinetics of BIC after single SC or IM injection of long acting formulations in monkey; type: in vivo, cynomolgus monkey

O=C(NCc1c(F)cc(F)cc1F)c1cn2c(c(O)c1=O)C(=O)N1[C@H]3CC[C@H](C3)O[C@@H]1C2 [BIC, (2R,5S,13aR)-8-hydroxy-7,9-dioxo-N-(2,4,6-trifluorobenzyl)-2,3,4,5,7,9,13,13a-octahydro-2,5-methanopyrido[1',2':4,5]pyrazino[2,1-b][1,3]oxazepine-10-carboxamide]
systemic elimination rate (ke1 = CL/Vss) [1]: ~ 0.302 h^-1
systemic elimination rate (ke1 = CL/Vss) [2]: ~ 0.0162 h^-1
systemic elimination rate (ke1 = CL/Vss) [3]: ~ 0.253 h^-1
